Measurements published in US10138247B2, “7-(morpholin-4-yl)pyrazole[1,5-A]pyrimidine derivatives as PI3 kinase inhibitors” (priority 2015, dated 2018).
pIC50: −log10 of the molar value. Where two headings read alike, the source gives them in different places.

Assays:
PI3Kα = target: T1, PI3Kα (Homo sapiens, UniProt P42336); assay: PI3K kinases inhibition in vitro (ADP-Glo), PI3Kα; format: biochemical
T1 construct: purchased Carna Biosciences
Experimental: (§1) Tested compounds were dissolved in 100% DMSO, and thus obtained solutions were serially diluted in 1× reaction buffer. Recombinant kinase was diluted in a reaction mixture comprising 5× reaction buffer, substrate (1 mM sodium diacetate 4,5-bisphosphate phosphatydylinositol (PIP2) solution in 40 mM Tris buffer), and water. To the wells in a 96-wells plate, 5 μl of compounds solutions and 15 μl of the kinase solution in the reaction mixture were added. To initiate interaction of tested chemical compounds with the enzyme, the plate was incubated for 10 minutes at suitable temperature in a plate thermostat with orbital shaking at 600 rpm. Negative control wells contained all above reagents except tested compound and kinase, and positive control wells contained all above reagents except tested compounds. Enzymatic reaction was initiated by adding 5 μl of 150 μM ATP solution, subsequently the plate was incubated for 1 hour at 25° C. or 30° C. (depending on PI3K isoform tested) in plate thermostat with orbital shaking of the plate contents at 600 rpm. Reaction conditions are presented below in Table 12.
(§2) Detection of ADP formed in the enzymatic reaction was then performed using ADP-Glo Kinase Assay (Promega). To the wells of a 96-well plate 25 μl of ADP-Glo Reagent were added, and the plate was incubated for 40 minutes at 25° C. in a plate thermostat with orbital shaking at 600 rpm. Then to the wells of 96-well plate 50 μl of Kinase Detection Reagent were added and the plate was incubated for 40 minutes at 25° C. in a plate thermostat with orbital shaking at 600 rpm. After incubation time, luminescence intensity in a well was measured by Victor Light luminometer (Perkin Elmer, Inc.).
(§3) IC50 values were determined on the basis of luminescence intensity measurements in wells containing tested compounds at different concentrations and in control wells. These values were calculated with Graph Pad 5.03 software by fitting the curve using non-linear regression. Each compound was tested at least in quadruplicates (4 wells) on two 96-well plates using at least 4 wells of each of the controls.

PI3Kβ = target: T2, PI3Kβ (Homo sapiens, UniProt P42338); assay: PI3K kinases inhibition in vitro (ADP-Glo), PI3Kβ; format: biochemical
T2 construct: purchased Merck Millipore
T2 sequence (P42338 whole entry): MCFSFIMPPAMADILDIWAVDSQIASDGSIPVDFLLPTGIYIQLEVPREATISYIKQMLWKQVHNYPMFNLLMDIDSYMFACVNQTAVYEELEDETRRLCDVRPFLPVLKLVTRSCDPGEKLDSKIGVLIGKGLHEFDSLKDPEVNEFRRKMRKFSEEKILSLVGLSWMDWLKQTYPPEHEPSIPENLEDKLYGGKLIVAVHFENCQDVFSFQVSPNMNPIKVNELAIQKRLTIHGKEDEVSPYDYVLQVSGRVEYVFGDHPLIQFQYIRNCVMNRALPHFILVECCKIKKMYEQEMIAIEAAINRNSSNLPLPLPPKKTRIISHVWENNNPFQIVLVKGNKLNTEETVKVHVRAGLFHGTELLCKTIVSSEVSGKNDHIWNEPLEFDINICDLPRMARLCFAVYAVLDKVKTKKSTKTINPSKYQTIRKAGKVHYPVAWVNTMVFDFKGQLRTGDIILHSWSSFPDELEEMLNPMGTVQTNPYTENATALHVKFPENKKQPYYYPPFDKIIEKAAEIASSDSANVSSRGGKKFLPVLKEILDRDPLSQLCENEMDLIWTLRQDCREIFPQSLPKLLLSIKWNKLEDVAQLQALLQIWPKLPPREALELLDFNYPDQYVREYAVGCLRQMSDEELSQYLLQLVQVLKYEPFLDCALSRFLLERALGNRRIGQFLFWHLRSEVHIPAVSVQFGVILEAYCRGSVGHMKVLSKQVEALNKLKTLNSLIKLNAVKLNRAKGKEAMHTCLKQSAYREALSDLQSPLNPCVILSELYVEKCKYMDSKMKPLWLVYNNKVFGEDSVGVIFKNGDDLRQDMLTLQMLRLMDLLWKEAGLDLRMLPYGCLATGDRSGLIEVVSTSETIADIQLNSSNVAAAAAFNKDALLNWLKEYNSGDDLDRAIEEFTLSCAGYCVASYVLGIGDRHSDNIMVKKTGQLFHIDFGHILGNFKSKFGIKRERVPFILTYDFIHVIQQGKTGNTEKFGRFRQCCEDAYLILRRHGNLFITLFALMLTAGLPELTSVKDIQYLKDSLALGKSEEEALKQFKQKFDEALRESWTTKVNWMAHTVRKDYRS
T2 sequence (P27986 whole entry, further chain): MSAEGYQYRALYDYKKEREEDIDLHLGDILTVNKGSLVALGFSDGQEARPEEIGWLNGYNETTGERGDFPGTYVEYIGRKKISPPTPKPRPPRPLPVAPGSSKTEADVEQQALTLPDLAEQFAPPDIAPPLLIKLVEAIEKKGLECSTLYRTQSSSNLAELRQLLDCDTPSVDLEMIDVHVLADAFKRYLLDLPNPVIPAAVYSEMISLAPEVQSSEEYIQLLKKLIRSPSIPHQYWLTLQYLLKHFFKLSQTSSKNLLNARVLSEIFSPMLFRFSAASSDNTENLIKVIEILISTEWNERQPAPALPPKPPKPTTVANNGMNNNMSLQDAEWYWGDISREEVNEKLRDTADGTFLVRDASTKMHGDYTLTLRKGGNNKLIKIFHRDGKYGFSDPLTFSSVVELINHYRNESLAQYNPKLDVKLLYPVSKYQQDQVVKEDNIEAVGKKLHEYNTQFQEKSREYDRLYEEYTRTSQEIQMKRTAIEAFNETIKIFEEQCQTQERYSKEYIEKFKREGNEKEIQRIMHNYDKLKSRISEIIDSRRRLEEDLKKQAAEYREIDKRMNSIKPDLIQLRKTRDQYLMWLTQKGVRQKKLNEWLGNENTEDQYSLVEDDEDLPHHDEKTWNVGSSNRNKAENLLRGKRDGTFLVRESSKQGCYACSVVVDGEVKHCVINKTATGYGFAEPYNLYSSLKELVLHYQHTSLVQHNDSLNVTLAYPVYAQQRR
Experimental: as §1, §2, §3

PI3Kγ = target: T3, PI3Kγ (Homo sapiens, UniProt P48736); assay: PI3K kinases inhibition in vitro (ADP-Glo), PI3Kγ; format: biochemical
T3 construct: purchased Merck Millipore
T3 sequence (P48736 whole entry): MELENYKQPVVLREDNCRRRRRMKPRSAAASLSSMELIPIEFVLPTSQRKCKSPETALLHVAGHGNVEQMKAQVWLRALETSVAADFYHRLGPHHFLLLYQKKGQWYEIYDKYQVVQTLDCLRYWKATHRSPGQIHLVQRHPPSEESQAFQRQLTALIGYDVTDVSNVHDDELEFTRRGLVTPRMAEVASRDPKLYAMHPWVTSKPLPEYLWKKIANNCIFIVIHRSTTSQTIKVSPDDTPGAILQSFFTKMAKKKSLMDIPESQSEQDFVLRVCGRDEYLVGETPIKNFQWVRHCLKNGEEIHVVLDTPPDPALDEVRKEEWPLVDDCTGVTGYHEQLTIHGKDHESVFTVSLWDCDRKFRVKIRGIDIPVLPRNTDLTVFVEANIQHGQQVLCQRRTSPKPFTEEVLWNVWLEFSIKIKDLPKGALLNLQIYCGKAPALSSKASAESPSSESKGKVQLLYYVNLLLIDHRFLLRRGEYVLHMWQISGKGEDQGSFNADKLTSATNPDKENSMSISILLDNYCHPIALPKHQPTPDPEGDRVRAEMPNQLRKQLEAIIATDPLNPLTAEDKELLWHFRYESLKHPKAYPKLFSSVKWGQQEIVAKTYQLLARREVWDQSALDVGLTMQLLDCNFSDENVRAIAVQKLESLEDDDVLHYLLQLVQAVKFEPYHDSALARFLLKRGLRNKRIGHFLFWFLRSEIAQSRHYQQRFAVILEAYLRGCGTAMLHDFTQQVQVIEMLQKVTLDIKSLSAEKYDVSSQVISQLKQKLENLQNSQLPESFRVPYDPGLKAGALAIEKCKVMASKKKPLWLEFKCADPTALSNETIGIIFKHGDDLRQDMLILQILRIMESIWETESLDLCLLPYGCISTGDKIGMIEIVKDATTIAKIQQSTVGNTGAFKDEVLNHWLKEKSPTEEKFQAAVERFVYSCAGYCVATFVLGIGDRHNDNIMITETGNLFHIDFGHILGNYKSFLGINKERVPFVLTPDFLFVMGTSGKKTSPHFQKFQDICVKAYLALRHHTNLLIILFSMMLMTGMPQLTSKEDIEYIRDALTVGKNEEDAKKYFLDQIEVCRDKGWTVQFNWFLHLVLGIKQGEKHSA
Experimental: as §1, §2, §3

PI3Kδ = target: T4, PI3Kδ (Homo sapiens, UniProt O00329); assay: PI3K kinases inhibition in vitro (ADP-Glo), PI3Kδ; format: biochemical
T4 construct: purchased Merck Millipore
T4 sequence (O00329 whole entry): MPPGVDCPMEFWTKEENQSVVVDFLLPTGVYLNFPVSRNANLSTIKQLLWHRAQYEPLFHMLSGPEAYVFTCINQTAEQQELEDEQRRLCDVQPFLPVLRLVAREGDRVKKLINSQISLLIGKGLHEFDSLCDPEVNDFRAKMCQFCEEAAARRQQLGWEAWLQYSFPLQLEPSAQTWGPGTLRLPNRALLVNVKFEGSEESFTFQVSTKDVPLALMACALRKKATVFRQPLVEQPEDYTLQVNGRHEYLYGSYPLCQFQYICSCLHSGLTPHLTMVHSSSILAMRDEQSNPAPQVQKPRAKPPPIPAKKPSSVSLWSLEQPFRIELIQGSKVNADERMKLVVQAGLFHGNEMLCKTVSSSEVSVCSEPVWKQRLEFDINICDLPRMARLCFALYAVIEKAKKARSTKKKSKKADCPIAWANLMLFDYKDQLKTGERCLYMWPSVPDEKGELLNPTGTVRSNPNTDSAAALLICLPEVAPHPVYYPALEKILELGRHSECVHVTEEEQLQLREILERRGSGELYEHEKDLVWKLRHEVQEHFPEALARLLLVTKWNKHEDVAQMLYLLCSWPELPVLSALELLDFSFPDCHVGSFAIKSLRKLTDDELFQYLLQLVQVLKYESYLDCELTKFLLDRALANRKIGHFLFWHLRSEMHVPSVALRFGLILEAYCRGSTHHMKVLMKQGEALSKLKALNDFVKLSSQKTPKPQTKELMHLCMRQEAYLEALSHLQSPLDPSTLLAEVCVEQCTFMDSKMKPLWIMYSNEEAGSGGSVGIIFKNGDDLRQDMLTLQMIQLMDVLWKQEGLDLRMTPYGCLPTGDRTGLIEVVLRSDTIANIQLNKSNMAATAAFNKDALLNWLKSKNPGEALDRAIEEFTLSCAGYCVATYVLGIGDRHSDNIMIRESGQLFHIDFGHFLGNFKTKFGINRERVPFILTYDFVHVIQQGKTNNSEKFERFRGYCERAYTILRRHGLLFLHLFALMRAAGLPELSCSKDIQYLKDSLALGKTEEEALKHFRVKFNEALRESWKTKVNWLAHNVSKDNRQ
T4 sequence (P27986 whole entry, further chain): as the sequence (P27986 whole entry, further chain) above
Experimental: as §1, §2, §3

[1] = Pharmacokinetics testing in vivo, oral, rats; conditions: rat, Wistar rats, oral 30 mg/kg, serum
Experimental: Tests were performed on about 12 weeks old Wistar rats, weight 250-300 g. Rats were given orally tested compounds at 30 mg/kg m.c. Blood samples were collected from animals for analysis in 6 time points—30 min, 1 h, 2 h, 4 h, 7 h, and 12 h from administration of the compound. Blood was collected to tubes with K2EDTA and centrifuged for 15 min, 2000×g, at room temperature to separate serum. Collected serum samples were maintained at −20° C. before analysis. Each of the compounds was tested on a group of 5 animals.
Serum concentrations of tested compounds were determined by spectrophotometry. For each of tested compounds, time to reach maximum serum concentration (Tmax), maximum concentration (Cmax), and area under the curve (AUC) were determined.

[2] = averaged, recombinant kinase, 30° C., 1 h, PIP2 50 μM, read-out: PI3Kγ IC50
[3] = averaged, recombinant kinase, 25° C., 1 h, PIP2 30 μM, read-out: PI3Kδ IC50
[4] = averaged, recombinant kinase, 30° C., 1 h, PIP2 50 μM, read-out: PI3Kβ IC50

T1 sequence (P42336 whole entry): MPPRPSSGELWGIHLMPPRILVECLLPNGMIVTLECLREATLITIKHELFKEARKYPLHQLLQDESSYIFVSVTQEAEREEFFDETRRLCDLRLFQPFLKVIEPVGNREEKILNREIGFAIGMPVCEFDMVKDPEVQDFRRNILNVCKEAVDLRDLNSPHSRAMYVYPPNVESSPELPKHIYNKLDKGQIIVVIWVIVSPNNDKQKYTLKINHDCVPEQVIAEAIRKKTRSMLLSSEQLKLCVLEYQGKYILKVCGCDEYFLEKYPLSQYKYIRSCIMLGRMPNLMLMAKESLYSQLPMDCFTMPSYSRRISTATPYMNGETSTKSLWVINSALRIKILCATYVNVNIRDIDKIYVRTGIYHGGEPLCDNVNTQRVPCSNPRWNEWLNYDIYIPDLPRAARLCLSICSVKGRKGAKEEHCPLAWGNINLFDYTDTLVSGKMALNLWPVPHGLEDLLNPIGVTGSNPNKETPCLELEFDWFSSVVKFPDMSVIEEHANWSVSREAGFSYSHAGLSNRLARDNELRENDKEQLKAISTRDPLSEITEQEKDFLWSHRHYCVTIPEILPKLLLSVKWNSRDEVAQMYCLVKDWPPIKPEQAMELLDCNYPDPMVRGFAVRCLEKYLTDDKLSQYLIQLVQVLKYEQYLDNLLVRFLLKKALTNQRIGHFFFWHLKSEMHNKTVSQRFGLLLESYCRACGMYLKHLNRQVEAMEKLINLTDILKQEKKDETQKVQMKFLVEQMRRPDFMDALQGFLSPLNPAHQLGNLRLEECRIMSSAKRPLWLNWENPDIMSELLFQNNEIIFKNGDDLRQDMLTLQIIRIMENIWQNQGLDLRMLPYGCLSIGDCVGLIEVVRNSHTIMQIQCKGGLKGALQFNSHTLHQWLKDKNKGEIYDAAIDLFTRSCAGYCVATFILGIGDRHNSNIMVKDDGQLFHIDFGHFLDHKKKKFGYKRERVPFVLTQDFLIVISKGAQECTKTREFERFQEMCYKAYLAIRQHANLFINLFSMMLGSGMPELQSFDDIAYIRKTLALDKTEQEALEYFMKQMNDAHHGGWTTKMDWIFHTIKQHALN
T1 sequence (P27986 whole entry partner): as the sequence (P27986 whole entry, further chain) above

Compound	pIC50 (PI3Kα)	pIC50 (PI3Kβ)	pIC50 (PI3Kγ)	pIC50 (PI3Kδ)	AUC [1] [ng·h/mL]	Cmax [1] [ng/mL]	Tmax [1] [h]	pIC50 (PI3Kγ; [2])	pIC50 (PI3Kδ; [3])	pIC50 (PI3Kβ; [4])
CC(C)(O)C1CCN(Cc2cc3nc(-c4cccc5[nH]ccc45)cc(N4CCOCC4)n3n2)CC1 [Example 4, 2-((4-(2-hydroxypropan-2-yl)-piperidin-1-yl)methyl)-5-(1H-indol-4-yl)-7-(morpholin-4-yl)pyrazolo [1,5-a]pyrimidine]	< 6.00	< 6.00	< 6.00	> 7.00	3580	600	2	–	–	–
CC(C)(C)N1CCN(Cc2cc3nc(-c4cccc5[nH]ccc45)cc(N4CCOCC4)n3n2)CC1 [Example 8, 2-((4-tert-butylpiperazin-1-yl)-methyl)-5-(1H-indol-4-yl)-7-(morpholin-4-yl)pyrazolo[1,5-a]-pyrimidine]	< 6.00	< 6.00	< 6.00	> 7.00	1290	200	2	–	–	–
CC(C)(C)N1CCN(Cc2cc3nc(-c4c(F)ccc5[nH]ccc45)cc(N4CCOCC4)n3n2)CC1 [Example 11, 2-((4-tert-butylpiperazin-1-yl)-methyl)-5-(5-fluoro-1H-indol-4-yl)-7-(morpholin-4-yl)pyrazolo[1,5-a]-pyrimidine]	< 6.00	< 6.00	–	–	1250	300	2	< 6.00	> 7.00	–
CC(C)(C)N1CCN(Cc2cc3nc(-n4c(C(F)F)nc5ccccc54)cc(N4CCOCC4)n3n2)CC1 [Example 50, 5-(2-(difluoromethyl)benzimidazol-1-yl)-2-((4-tert-butylpiperazin-1-yl)methyl)-7-(morpholin-4-yl)-pyrazolo[1,5-a]pyrimidine]	6.00 to 7.00	–	–	–	5030	900	2	< 6.00	> 7.00	< 6.00
FC(F)c1nc2ccccc2n1-c1cc(N2CCOCC2)n2nc(CN3CC(N4CCC(F)(F)CC4)C3)cc2n1 [Example 66, 5-(2-(difluoromethyl)benzimidazol-1-yl)-2-((3-(4,4-difluoropiperidin-1-yl)azetidin-1-yl)methyl)-7-(morpholin-4-yl)pyrazolo[1,5-a]-pyrimidine]	6.00 to 7.00	–	–	–	–	–	–	< 6.00	> 7.00	< 6.00
Cc1c(CN2CCN(C(C)(C)C)CC2)nn2c(N3CCOCC3)cc(-n3c(C(F)F)nc4ccccc43)nc12 [Example 68, 5-(2-(difluoromethyl)benzimidazol-1-yl)-3-methyl-2-((4-tert-butylpiperazin-1-yl)methyl)-7-(morpholin-4-yl)pyrazolo[1,5-a]-pyrimidine]	6.00 to 7.00	–	–	–	–	–	–	< 6.00	> 7.00	< 6.00
Cc1c(CN2CCC(C(C)(C)O)CC2)nn2c(N3CCOCC3)cc(-n3c(C(F)F)nc4ccccc43)nc12 [Example 69, 5-(2-(difluoromethyl)benzimidazol-1-yl)-3-methyl-2-((4-(2-hydroxy-propan-2-yl)piperidin-1-yl)methyl)-7-(morpholin-4-yl)pyrazolo[1,5-a]-pyrimidine]	6.00 to 7.00	–	–	–	–	–	–	< 6.00	> 7.00	< 6.00
CC(C)(C)N1CCN(C(=O)c2cc3nc(-c4cccc5[nH]ccc45)cc(N4CCOCC4)n3n2)CC1 [Example 70, 2-(4-tert-butylpiperazin-1-ylcarbonyl)-5-(1H-indol-4-yl)-7-(morpholin-4-yl)pyrazolo[1,5-a]pyrimidine]	< 6.00	–	–	–	–	–	–	< 6.00	> 7.00	< 6.00
CC(C)(C)N1CCN(Cc2nn3c(N4CCOCC4)cc(-n4c(C(F)F)nc5ccccc54)nc3c2Cl)CC1 [Example 71, 5-(2-(difluoromethyl)benzimidazol-1-yl)-3-chloro-2-((4-tert-butylpiperazin-1-yl)methyl)-7-(morpholin-4-yl)pyrazolo[1,5-a]pyrimidine]	6.00 to 7.00	–	–	–	–	–	–	< 6.00	> 7.00	< 6.00
